In PubChem BioAssay (NCI):
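Protocol summary: plate cells (96-well), add compound at 5 concentrations, incubate 48 h, interpolate endpoints linearly. TGI marks complete inhibition of growth.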

Legend:
Assay in all cases: growth of human tumour cells (NCI), 48 h
[1] = system: OVCAR-8 ovarian
[2] = system: SR leukemia
[3] = system: RPMI-8226 leukemia
[4] = system: HL-60(TB) leukemia
[5] = system: XF 498 CNS
[6] = system: SNB-78 CNS
[7] = system: CCRF-CEM leukemia
[8] = system: HCC-2998 colon
[9] = system: SK-MEL-5 melanoma
[10] = system: M19-MEL melanoma
[11] = system: LOX IMVI melanoma
[12] = system: OVCAR-4 ovarian
[13] = system: SF-268 CNS
[14] = system: SF-539 CNS
[15] = system: HOP-92 NSCLC
[16] = system: DMS 114 small cell lung
[17] = system: A549 NSCLC
[18] = system: UACC-257 melanoma
[19] = system: SK-OV-3 ovarian
[20] = system: SK-MEL-28 melanoma
[21] = system: NCI-H460 lung
[22] = system: HCT-15 colon
[23] = system: 786-0 renal
[24] = system: UACC-62 melanoma
[25] = system: DMS 273 small cell lung
[26] = system: NCI-H226 lung
[27] = system: UO-31 renal
[28] = system: U251 CNS
[29] = system: OVCAR-5 ovarian
[30] = system: KM12 colon
[31] = system: SF-295 CNS
[32] = system: OVCAR-3 ovarian
[33] = system: NCI-H522 lung
[34] = system: RXF 393 renal
[35] = system: LXFL 529 NSCLC
[36] = system: SN12C renal
[37] = system: SK-MEL-2 melanoma
[38] = system: SW-620 colon
[39] = system: COLO 205 colon
[40] = system: SNB-75 CNS
[41] = system: M14 melanoma
[42] = system: MALME-3M melanoma
[43] = system: ACHN renal
[44] = system: A498 renal
[45] = system: EKVX NSCLC
[46] = system: K-562 leukemia
[47] = system: DLD-1 colon
[48] = system: NCI-H23 lung
[49] = system: HOP-62 NSCLC
[50] = system: IGROV1 ovarian
[51] = system: SNB-19 CNS
[52] = system: MOLT-4 leukemia
[53] = system: TK-10 renal
[54] = system: HT29 colon
[55] = system: HCT-116 colon
[56] = system: HOP-18 NSCLC
[57] = system: KM20L2 colon

`CCOC(=O)c1oc2ccc(OC)c3c2c1CCC3` was tested, and the TGI [1] was > 100 µM, the TGI [2] was > 100 µM and the TGI [3] was > 100 µM. The TGI [4] was > 100 µM, the TGI [5] was > 100 µM and the TGI [6] was > 100 µM. The TGI [7] was > 100 µM, the TGI [8] was > 100 µM and the TGI [9] was > 100 µM. The TGI [10] was > 100 µM, the TGI [11] was > 100 µM and the TGI [12] was > 100 µM. The TGI [13] was > 100 µM, the TGI [14] was > 100 µM and the TGI [15] was > 100 µM. The TGI [16] was > 100 µM, the TGI [17] was > 100 µM and the TGI [18] was 40 µM. For the same compound, the TGI [19] was > 100 µM, the TGI [20] was > 100 µM and the TGI [21] was > 100 µM. For the same compound, the TGI [22] was > 100 µM, the TGI [23] was > 100 µM and the TGI [24] was > 100 µM. The TGI [25] was > 100 µM, the TGI [26] was > 100 µM and the TGI [27] was > 100 µM. For the same compound, the TGI [28] was > 100 µM, the TGI [29] was > 100 µM and the TGI [30] was > 100 µM. For the same compound, the TGI [31] was > 100 µM, the TGI [32] was > 100 µM and the TGI [33] was > 100 µM. For the same compound, the TGI [34] was > 100 µM, the TGI [35] was > 100 µM and the TGI [36] was > 100 µM. For the same compound, the TGI [37] was > 100 µM, the TGI [38] was > 100 µM and the TGI [39] was > 100 µM. For the same compound, the TGI [40] was > 100 µM, the TGI [41] was > 100 µM and the TGI [42] was > 100 µM. For the same compound, the TGI [43] was > 100 µM, the TGI [44] was > 100 µM and the TGI [45] was > 100 µM. For the same compound, the TGI [46] was > 100 µM, the TGI [47] was > 100 µM and the TGI [48] was > 100 µM. For the same compound, the TGI [49] was > 100 µM, the TGI [50] was > 100 µM and the TGI [51] was > 100 µM. For the same compound, the TGI [52] was > 100 µM and the TGI [53] was > 100 µM.
In the case of `COc1cc(OC)c(/C=C2\N=C(C)N(Nc3nnc(NN4C(=O)/C(=C/c5c(OC)cc(OC)cc5OC)N=C4C)c4ccccc34)C2=O)c(OC)c1`, the TGI [1] is reported as > 100 µM, the TGI [2] is reported as > 100 µM and the TGI [3] is reported as > 100 µM. For the same compound, the TGI [4] was > 100 µM, the TGI [54] was > 100 µM and the TGI [6] was > 100 µM. For the same compound, the TGI [7] was > 100 µM, the TGI [9] was > 100 µM and the TGI [10] was > 100 µM. For the same compound, the TGI [11] was > 100 µM, the TGI [12] was > 100 µM and the TGI [13] was > 100 µM. The TGI [14] was > 100 µM, the TGI [15] was > 100 µM and the TGI [16] was > 100 µM. The TGI [17] was > 100 µM, the TGI [18] was > 100 µM and the TGI [20] was > 100 µM. For the same compound, the TGI [21] was > 100 µM, the TGI [22] was > 100 µM and the TGI [23] was > 100 µM. For the same compound, the TGI [24] was > 100 µM, the TGI [25] was > 100 µM and the TGI [55] was > 100 µM. For the same compound, the TGI [26] was > 100 µM, the TGI [28] was > 100 µM and the TGI [29] was > 100 µM. The TGI [30] was > 100 µM, the TGI [31] was > 100 µM and the TGI [33] was > 100 µM. For the same compound, the TGI [34] was > 100 µM, the TGI [35] was > 100 µM and the TGI [36] was > 100 µM. For the same compound, the TGI [56] was > 100 µM, the TGI [38] was > 100 µM and the TGI [39] was > 100 µM. The TGI [40] was > 100 µM, the TGI [41] was > 100 µM and the TGI [43] was > 100 µM. The TGI [44] was > 100 µM, the TGI [57] was > 100 µM and the TGI [45] was > 100 µM. For the same compound, the TGI [46] was > 100 µM, the TGI [47] was > 100 µM and the TGI [48] was > 100 µM. For the same compound, the TGI [49] was > 100 µM, the TGI [50] was > 100 µM and the TGI [51] was > 100 µM. For the same compound, the TGI [52] was > 100 µM.
